Experiments:
Experiment in all cases: relative viability (nuclei count vs DMSO), 5 days (fraction); higher = more cells survive
[1] = compound: OCc1c[nH]c2ccccc12 [Indole-3-carbinol] + CC(=O)c1c(C)c2cnc(Nc3ccc(N4CCNCC4)cn3)nc2n(C2CCCC2)c1=O [Palbociclib] (partner 0.5 µM)
Method in brief: (§1)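 Relative viability equals treated-well nuclei counts divided by vehicle-well nuclei counts. Counts came from 4× images of lung cancer cell lines grown in 1536-well plates for 5 days after pin-tool dosing on the day after seeding. Dosing used one drug alone or a fixed anchor-drug dose plus five library-drug doses (not always all listed) in √10 steps, and values are medians of duplicate plates.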

[2] = compound: OCc1c[nH]c2ccccc12 [Indole-3-carbinol] + CCNC(=O)c1noc(-c2cc(C(C)C)c(O)cc2O)c1-c1ccc(CN2CCOCC2)cc1 [Luminespib] (partner 0.01 µM)
Method in brief: as §1

[3] = compound: OCc1c[nH]c2ccccc12 [Indole-3-carbinol] + C[C@]1(O)C[C@@H](c2nc(-c3ccc4ccc(-c5ccccc5)nc4c3)c3c(N)nccn32)C1 [Linsitinib] (partner 1 µM)
Method in brief: as §1

[4] = compound: OCc1c[nH]c2ccccc12 [Indole-3-carbinol] + NC(=O)Nc1cc(-c2cccc(F)c2)sc1C(=O)N[C@H]1CCCNC1 [AZD7762] (partner 0.2 µM)
Method in brief: as §1

[5] = compound: OCc1c[nH]c2ccccc12 [Indole-3-carbinol] + O=C(c1cc(Cc2n[nH]c(=O)c3ccccc23)ccc1F)N1CCN(C(=O)C2CC2)CC1 [Olaparib] (partner 8 µM)
Method in brief: as §1

Cell Line	relative viability ([1]; first compound 0.253 µM)	relative viability ([1]; first compound 0.8 µM)	relative viability ([1]; first compound 2.53 µM)	relative viability ([1]; first compound 8 µM)	relative viability ([2]; first compound 0.253 µM)	relative viability ([2]; first compound 0.8 µM)	relative viability ([2]; first compound 2.53 µM)	relative viability ([2]; first compound 8 µM)	relative viability ([3]; first compound 0.253 µM)	relative viability ([3]; first compound 0.8 µM)	relative viability ([3]; first compound 2.53 µM)	relative viability ([3]; first compound 8 µM)	relative viability ([4]; first compound 0.253 µM)	relative viability ([4]; first compound 0.8 µM)	relative viability ([4]; first compound 2.53 µM)	relative viability ([4]; first compound 8 µM)	relative viability ([5]; first compound 0.253 µM)	relative viability ([5]; first compound 0.8 µM)	relative viability ([5]; first compound 2.53 µM)	relative viability ([5]; first compound 8 µM)
EMC-BAC-2	0.507	0.519	0.507	0.489	1.2	1.23	1.09	1.06	0.827	0.823	0.806	0.771	1.15	1.17	1.05	1.11	0.493	0.51	0.504	0.467
EPLC-272H	0.325	0.376	0.318	0.334	0.267	0.23	0.377	0.345	1.38	1.28	1.24	1.11	0.26	0.236	0.18	0.214	0.894	0.993	0.627	0.914
H3255	0.302	0.32	0.347	0.307	0.875	0.9	0.847	0.857	0.916	0.983	0.928	0.897	0.892	0.755	0.911	0.747	0.589	0.553	0.617	0.552
HARA	0.303	0.249	0.281	0.232	0.616	0.576	0.675	0.55	0.92	0.979	1.06	0.978	0.355	0.239	0.313	0.463	0.568	0.77	0.331	0.701
HCC-15	0.804	0.773	0.733	0.724	0.529	0.247	0.266	0.225	0.845	1.02	0.824	0.843	1.31	1.14	1.38	1.26	0.722	0.747	0.684	0.685
HCC-44	0.954	1.03	0.902	0.882	1.04	0.812	1.1	0.942	0.74	0.705	0.614	0.625	1.03	1.03	1	0.967	1	1.02	0.966	0.962
HCC-78	0.486	0.498	0.471	0.462					0.534	0.449	0.547	0.538	0.623	0.608	0.643	0.696	0.958	0.758	0.798	0.819
HCC-366	0.419	0.384	0.455	0.356					0.663	0.369	0.615	0.705	0.265	0.242	0.355	0.258	0.459	0.386	0.35	0.309

Reference: the supplement of paper PMC10307832
